Results: patent publication EP0463592A1, “2,4- and 2,5-substituted pyridine-N-oxides, processes for their preparation and for their utilization” (HOECHST AKTIENGESELLSCHAFT, priority 1990, dated 1992)

Tested on: durch CCl4 induzierte Leberfibrose in Ratten
Test: Effect of prolyl hydroxylase inhibitors on CCl4-induced liver fibrosis in rats: serum bilirubin, bile acids, gamma GT
Format: in vivo
Conditions: rat serum, 20 mg/kg total daily oral dose; for Bile acids / Bilirubin / Gamma GT: CCl4 then compound, mean ± standard deviation; for Bile acids: prozentuale Verbesserung gegenüber einer ausschließlichen CCl4-Behandlung / Bilirubin: prozentuale Verbesserung gegenüber einer ausschließlichen CCl4-Behandlung / Gamma GT: prozentuale Verbesserung gegenüber einer ausschließlichen CCl4-Behandlung: value in brackets
Source text: Um die effiziente Inhibitierung der Prolin-hydroxylase und der Lysin-hydroxylase durch die Verbindungen gemäß der Erfindung zu zeigen, werden die Konzentrationen von Bilirubin, Bile-Säuren und Gamma GT im Serum von • a) unbehandelten Ratten (Kontrolle), • b) mit CCl₄ behandelten Ratten, • c) Ratten, denen zuerst CCl₄ und anschließend eine Verbindung gemäß der Erfindung gegeben wurden, gemessen. (Die Methode ist beschrieben von Rouiller, C., Experimental toxic injury of the liver; in The Liver, C. Rouiller, Vol. 2, Seiten 335-476, New York, Academic Press 1964).
Die Ergebnisse sind in Tabelle 1 zusammengefaßt.

Structure (SMILES)	Bile acids	Bilirubin	Gamma GT	Bile acids: prozentuale Verbesserung gegenüber einer ausschließlichen CCl4-Behandlung	Bilirubin: prozentuale Verbesserung gegenüber einer ausschließlichen CCl4-Behandlung	Gamma GT: prozentuale Verbesserung gegenüber einer ausschließlichen CCl4-Behandlung
COCCNC(=O)c1cc[n+]([O-])c(C(=O)NCCOC)c1 [Beispiel 1, Pyridin-2,4-dicarbonsäure-di-N,N'-(2-methoxyethyl)amid-N-oxid]	97 ± 76	6,30 ± 5,4 µm	4,3 ± 3,1 U/L	0%	0%	27%
COCCCNC(=O)c1cc[n+]([O-])c(C(=O)NCCCOC)c1 [Beispiel 2, Pyridin-2,4-dicarbonsäure-di-N,N'-(3-methoxypropyl)amid-N-oxid]	71 ± 42	2,90 ± 0,94 µm	3,3 ± 2,2 U/L	18%	65%	59%
